The results in this text go back to EP1914235A1, “CHIRAL TETRA-HYDRO BETA-CARBOLINE DERIVATIVES AND APPLICATIONS THEREOF AS ANTIPARASITIC COMPOUNDS” (Université de Lille 2 Droit et Santé, priority 2006, dated 2008).

Converted amounts (≈) assume the structure as drawn.

For one assay, the system named is P. falciparum K1 strain. In words: [3H]hypoxanthine drug sensitivity assay, K1 strain. The conditions noted are these: Plasmodium falciparum, K1; read-out: IC50 K1. Type of assay: cell-based. The method, then:
(§1) The cultures are naturally asynchronous (65-75% ring stage) and are maintained in continuous log phase growth in RPMI-1640 medium (as developed by Moore et. al. at Roswell Park Memorial Institute, sold by Sigma Aldrich) supplemented with 5% washed human A+ erythrocytes, 25 mM Hepes, […] NaHCO3, and AlbuMAXII (lipid-rich bovine serum albumin) sold GIBCO, Grand Island, NY (CM). All cultures and assays were conducted at 37°C under an atmosphere of 5% CO2 and 5% O2, with a balance of N2.
(§2) The compounds were further diluted to the appropriate concentration using complete medium RPMI-1640 supplemented with 15nM cold hypoxanthine and AlbuMAXII.
(§3) Assays were performed in sterile 96-well microtitre plates; each plate contained 100 µl of parasite culture (0.5% parasitemia, 2.5% hematocrit). Each compound was tested in triplicate and parasite growth compared to control and blank (uninfected erythrocytes) wells. After 24h of incubation at 37°C, […] of [^3H]hypoxanthine was added to each well. Cultures were incubated for a further 24 h before they were harvested onto glass-fiber filter mats. The radioactivity was counted using a Wallac Microbeta® 1450 scintillation counter. The results were recorded as counts per minute (CPM) per well at each compound concentration, control and blank wells. Percentage inhibition was calculated from comparison to blank and control wells, and IC50 values calculated using Microsoft XLFit ® line fitting software (IDBS, UK).
(§4) Both the 3D7 clone and the K1 line were used. The compounds were diluted three-fold over at 12 different concentrations with an appropriate starting concentration based on the preliminary screen. The IC50 was determined by a sigmoidal dose response analysis using Microsoft XLFit™ (IDBS, UK).

The test system of assay [1] is P. falciparum 3D7 clone of NF54. In words: [3H]hypoxanthine drug sensitivity assay, 3D7 clone. It counts as cell-based. The conditions noted are these: Plasmodium falciparum; P. falciparum 3D7, sensitive to all anti-malarials; 48 h, [3H]hypoxanthine uptake; read-out: IC50 3D7(µg/ml). Here is the method:
as §1, §2
as §3, with “The results were recorded as counts per minute (CPM) per well at each compound concentration, control and blank wells.” left out
The preliminary screen used the 3D7 strain. The compounds were tested at 6 concentrations (30, 10, 3, 1, 0.3, and 0.1 µg/ml).
as §4

For assay [2], the system named is Plasmodium berghei ANKA strain. The assay can be described thus: In vivo antiparasitic activity in infected mice (4-day dosing, parasitemia on day 5). The conditions noted are these: mice infected with P. berghei ANKA; for Activity at the dose 50 mg/kg (%): 50 mg/kg every day for 4 days; for Activity at the dose 10 mg/kg (%): 10 mg/kg every day for 4 days. The method, then: Female mice (TFW or BALB/c, specific pathogen free), 18-20 g, or
Infection: Blood was taken from donor mice and diluted in RPMI-1640 medium to a parasitemia of 1% (the equivalent of 1x10^7 infected erythrocytes/ml) whilst kept on ice. An inoculum of 0.2 ml was administered to each mouse by the intravenous route. At 2-4 hours post-inoculation dosing commences.
Evaluation endpoint: On day 5 blood smears of all animals (2 slides/mouse) were prepared, fixed with methanol and stained with 10% Giemsa's stain. Parasitemia was determined microscopically by counting 1000 red blood cells under oil immersion at 1000x magnification.
Each of the tested compounds of formula (I) according to the invention was prepared as a stock solution of 5 mg/ml in 10% DMSO/PBS. Insoluble compounds of formula (I) were milled with stainless steel balls for up to 24 hours to reduce particle size. Fresh dilutions were prepared each day. The route of administration of tested compounds is intra peritoneal (i.p.).
Compounds were formulated at 10 mg/kg or at 50 mg/kg in a standard suspension vehicle (0.5% carboxymethylcellulose, 0.5% benzyl alcohol, 0.4% Tween® 80 in 0.9% NaCl) for both oral and i.p. administration.
Dosing was over a 4 day period as above, and evaluation was also as above.

For the molecule `Cn1ccnc1CN1CC[C@@H](N2CC(=O)N3[C@@H](c4ccc5c(c4)OCO5)c4[nH]c5ccccc5c4C[C@@H]3C2=O)C1` [Compound 29, (6S,12aR)-6-Benzo[1,3]dioxol-5-yl-2-[(R)-1-(1-methyl-1H-imidazol-2-ylmethyl)-pyrrolidin-3-yl]-2,3,6,7,12,12a-hexahydro-pyrazino[1',2':1,6]pyrido[3,4-b]indole-1,4-dione], the results for the IC50 (in the assay with P. falciparum K1 strain; in assay [1]) were 0.09 mg/L (≈ 0.167 µM) and 0.5 µg/mL (≈ 0.928 µM), respectively. The “Activity at the dose 50 mg/kg (%)” value in assay [2] is 19%.
On the same counts, the results for `O=C1[C@H]2Cc3c([nH]c4ccccc34)[C@@H](c3ccc4c(c3)OCO4)N2C(=O)CN1[C@@H]1CCN(Cc2ccccn2)C1` [Compound 27, (6R,12aR)-6-Benzo[1,3]dioxol-5-yl-2-((R)-1-pyridin-2-ylmethyl-pyrrolidin-3-yl)-2,3,6,7,12,12a-hexahydro-pyrazino [1',2':1,6]pyrido[3,4-b]indole-1,4-dione] are 0.2 mg/L (≈ 0.373 µM), 0.08 µg/mL (≈ 0.149 µM) and 10%.
With `O=C1[C@H]2Cc3c([nH]c4ccccc34)[C@@H](c3ccc4c(c3)OCO4)N2C(=O)CN1C1CCN(Cc2ccccc2)CC1` [Compound 10, (6R,12aR)-6-Benzo[1,3]dioxol-5-yl-2-(1-benzyl-piperidin-4-yl)-2,3,6,7,12,12a-hexahydro-pyrazino[1',2':1,6]pyrido[3,4-b]indole-1,4-dione], the IC50 in the assay on P. falciparum K1 strain turned out to be 0.01 mg/L (≈ 0.0182 µM); in assay [1], 0.27 µg/mL (≈ 0.492 µM). Moreover, the “Activity at the dose 10 mg/kg (%)” value in assay [2] was found to be 15%. Further, the “Activity at the dose 50 mg/kg (%)” value in assay [2] came out at 31%.
Consider `Cn1ccnc1CN1CC[C@@H](N2CC(=O)N3[C@H](c4ccc5c(c4)OCO5)c4[nH]c5ccccc5c4C[C@@H]3C2=O)C1` [Compound 28, (6R,12aR)-6-Benzo[1,3]dioxol-5-yl-2-[(R)-1-(1-methyl-1H-imidazol-2-ylmethyl)-pyrrolidin-3-yl]-2,3,6,7,12,12a-hexahydro-pyrazino[1',2':1,6]pyrido[3,4-b]indole-1,4-dione], for which the IC50 in the assay on P. falciparum K1 strain stood at 0.07 mg/L (≈ 0.13 µM). In addition, the IC50 in assay [1] came to 0.09 µg/mL (≈ 0.167 µM). Besides, in assay [2], the “Activity at the dose 10 mg/kg (%)” value stood at 24% and the “Activity at the dose 50 mg/kg (%)” value worked out at 32%.
As to `O=C1[C@H]2Cc3c([nH]c4ccccc34)[C@@H](c3ccc(Cl)nc3)N2C(=O)CN1[C@@H]1CCN(Cc2ccccc2)C1` [Compound 84c, (6R,12aR)-2-((R)-1-Benzyl-pyrrolidin-3-yl)-6-(6-chloro-pyridin-3-yl)-2,3,6,7,12,12a-hexahydro-pyrazino[1',2':1,6] pyrido[3,4-b]indole-1,4-dione], the values for the IC50 (with P. falciparum K1 strain; in assay [1]) were 0.11 mg/L (≈ 0.209 µM) and 0.07 µg/mL (≈ 0.133 µM), respectively. The “Activity at the dose 50 mg/kg (%)” value in assay [2] came out at 9.1%.
